# Assay results taken from publication PMC10682503, “Structural and functional basis of inositol hexaphosphate stimulation of NHEJ through stabilization of Ku-XLF interaction” (Nucleic Acids Research, 2023).
# Read-outs that look alike come from different tables or passages of the source.
# Experiments:
# [1] = target: T1, Ku-4E (Ku70 H359E-H360E/Ku80 K413E H414E) (Homo sapiens, UniProt P12956+P13010, H359E/H360E/H414E/K413E); experiment: ITC, Ku-4E mutant with IP6; type: binding
# T1 construct: 10x His-tag with TEV site (same vector as KuFL) (N); made in house; host or cells: Sf21 insect cells
# T1 sequence (P12956 whole entry H359E/H360E): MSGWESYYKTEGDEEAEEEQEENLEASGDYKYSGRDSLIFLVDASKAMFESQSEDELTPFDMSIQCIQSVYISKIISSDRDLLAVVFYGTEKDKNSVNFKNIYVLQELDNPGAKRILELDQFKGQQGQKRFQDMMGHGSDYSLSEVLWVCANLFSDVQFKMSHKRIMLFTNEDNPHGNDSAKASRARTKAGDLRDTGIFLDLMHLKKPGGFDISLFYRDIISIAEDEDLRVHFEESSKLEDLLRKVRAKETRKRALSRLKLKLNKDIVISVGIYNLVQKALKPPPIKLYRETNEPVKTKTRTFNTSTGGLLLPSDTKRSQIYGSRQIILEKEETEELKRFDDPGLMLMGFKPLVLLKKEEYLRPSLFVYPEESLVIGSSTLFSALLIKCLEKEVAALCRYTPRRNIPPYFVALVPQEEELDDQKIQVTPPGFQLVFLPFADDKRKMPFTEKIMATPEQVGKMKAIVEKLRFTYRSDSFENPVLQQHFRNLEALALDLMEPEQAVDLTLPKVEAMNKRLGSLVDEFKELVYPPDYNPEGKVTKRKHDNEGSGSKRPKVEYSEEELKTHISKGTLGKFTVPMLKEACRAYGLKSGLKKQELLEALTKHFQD
# T1 sequence (P13010 whole entry K413E/H414E): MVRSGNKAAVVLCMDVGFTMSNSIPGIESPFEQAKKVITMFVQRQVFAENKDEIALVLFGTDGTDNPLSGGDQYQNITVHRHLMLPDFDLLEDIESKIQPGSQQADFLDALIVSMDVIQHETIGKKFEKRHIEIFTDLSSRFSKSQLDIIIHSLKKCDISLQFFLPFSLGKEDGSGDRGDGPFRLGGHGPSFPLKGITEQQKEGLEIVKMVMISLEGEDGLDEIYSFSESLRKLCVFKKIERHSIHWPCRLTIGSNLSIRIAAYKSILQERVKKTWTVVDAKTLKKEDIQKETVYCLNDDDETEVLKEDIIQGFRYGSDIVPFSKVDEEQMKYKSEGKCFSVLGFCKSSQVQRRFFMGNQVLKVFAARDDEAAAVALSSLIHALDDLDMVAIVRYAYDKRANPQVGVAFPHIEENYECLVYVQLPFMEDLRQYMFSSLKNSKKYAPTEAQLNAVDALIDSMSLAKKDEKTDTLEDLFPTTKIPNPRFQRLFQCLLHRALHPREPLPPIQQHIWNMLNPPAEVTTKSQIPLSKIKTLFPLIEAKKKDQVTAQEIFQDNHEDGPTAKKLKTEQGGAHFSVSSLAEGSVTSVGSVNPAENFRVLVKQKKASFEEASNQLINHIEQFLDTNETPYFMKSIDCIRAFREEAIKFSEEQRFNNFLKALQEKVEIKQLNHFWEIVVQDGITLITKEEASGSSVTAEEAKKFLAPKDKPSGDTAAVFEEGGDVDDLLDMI
# Method: (§1) Purification of Ku full-length (KuFL) for cryo-EM experiments was carried out as described previously ([5]). Expression and purification of KuFL for biophysical experiments was carried out as described previously ([20]). The full-length human Ku heterodimer subunits (Ku70 1–609, Ku80 1–732) were cloned into a Multibac vector ([21]). The construct has a 10× His-tag and a TEV site on the N-terminus of Ku80 and no-tag on Ku70. Protein production was initiated in Sf21 cells by infection with the baculovirus stock at MOI of 5 × 10^−3 and cells were collected 5–6 days after the infection (3–4 days after the proliferation arrest). Cells were sonicated and the supernatant was incubated with Benzonase (300 units for 30 min at 4°C). The Ku heterodimer was purified on a NiNTA-Agarose affinity column (Protino, Macherey Nagel) with a 1 M NaCl wash step to remove DNA excess. The eluted Ku was then bound onto an anion exchange column (Resource Q, Cytiva) equilibrated in 20 mM Tris pH 8.0, 50 mM NaCl, 50 mM KCl, 10 mM β-mercaptoethanol and eluted with a salt gradient. […]
# (§2) Calorimetry. Interactions between KuFL and inositol phosphates (IPs) (IP6 and IP6 analogues) were determined by Isothermal Titration Calorimetry (ITC) using a VP-ITC calorimeter (Malvern). […] The free energy of binding (ΔG) and the entropy (ΔS) were determined using the classical thermodynamic formula, ΔG = - RT ln(Ka) and ΔG = ΔH - TΔS. […]
# Ku-XLF interaction = target: T2, Ku-XLF interaction (Homo sapiens, UniProt P12956+P13010); experiment: switchSENSE analysis of Ku-DNA interaction with XLF; type: binding; details: IP6 20 μM; for Kd: biphasic fit
# T2 construct: The full-length human Ku heterodimer subunits (Ku70 1–609, Ku80 1–732); 10x His-tag with TEV site (N); made in house; host or cells: Sf21 insect cells (Ku)
# T2 sequence (P12956 whole entry): as the sequence (P12956 whole entry H359E/H360E) above, with E359H, E360H counted along it
# T2 sequence (P13010 whole entry): as the sequence (P13010 whole entry K413E/H414E) above, with E413K, E414H counted along it
# T2 sequence (Q9H9Q4 whole entry partner): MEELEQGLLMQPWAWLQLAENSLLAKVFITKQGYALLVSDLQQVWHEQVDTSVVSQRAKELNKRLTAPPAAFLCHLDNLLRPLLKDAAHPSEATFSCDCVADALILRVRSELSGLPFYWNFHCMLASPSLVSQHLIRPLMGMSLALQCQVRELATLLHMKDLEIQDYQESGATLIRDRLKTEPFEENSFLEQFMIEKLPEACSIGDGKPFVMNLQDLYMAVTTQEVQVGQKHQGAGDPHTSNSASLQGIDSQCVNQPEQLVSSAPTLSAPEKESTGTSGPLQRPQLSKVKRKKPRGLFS
# Method: switchSENSE: A DRX 2400 instrument and a multi-purpose 48bp chip were used for switchSENSE measurements (both Dynamic Biosensors GmbH; Planegg, Germany). The sample and running buffer was in 10 mM Tris HCl pH 7.4, 140 mM NaCl, 50 µM EDTA, 0.05 % Tween-20, 50µM EDTA. Kinetics experiments of Ku interaction with DNA in presence or absence of IP6 were performed on a DRX2 instrument. Complementary DNA to the strand immobilized on the chip was first hybridized on the measurement electrodes. The association and dissociation between Ku and DNA, with or without IP6 (3 µM) at Ku concentration (0-15-30-60-120-240 nM were measured in a flow rate of 200 µL/min. Kinetics experiments of Ku interaction with DNA and XLF with or without DNA were performed on a Helix instrument. The sample and running buffer was in 10 mM Tris HCl pH 7.4, 140 mM NaCl, 50 µM EDTA, 0.05 % Tween-20 with or without IP6 (20 µM). The flow rate of all conditions are at 500 µL/min.
# A complementary DNA is hybridized onto an anchor DNA on the measurement chip in order to obtain a 96 base paired DNA with nick. KuFL is then captured under saturation condition (SI figure 13a and 13c). Association and dissociation between XLF and Ku-DNA is then monitored using 1, 2 or 8 µM of XLF, with or without IP6 in working buffer (SI figure 13c and d) . The fit is realised using biphasic model from BDS software.
# [2] = target: T3, Ku-2E (Ku70-K357E, Ku80-K481E) (Homo sapiens, UniProt P12956+P13010, K357E/K481E); experiment: nanoDSF thermal stability of Ku-2E; details: Ku-2E with DNA
# T3 construct: 10x His-tag with TEV site (same vector as KuFL) (N); made in house; host or cells: Sf21 insect cells
# T3 sequence (P12956 whole entry K357E): as the sequence (P12956 whole entry H359E/H360E) above, with K357E, E359H, E360H counted along it
# T3 sequence (P13010 whole entry K481E): as the sequence (P13010 whole entry K413E/H414E) above, with E413K, E414H, K481E counted along it
# [3] = target: T4, KuFL (full-length human Ku70–Ku80 heterodimer) (Homo sapiens, UniProt P12956+P13010); experiment: Isothermal titration calorimetry (ITC), KuFL with IP6 and IP6 analogues; type: binding; details: 25 °C, Ku 4 µM in cell, IPs 40 µM in syringe
# T4 construct: The full-length human Ku heterodimer subunits (Ku70 1–609, Ku80 1–732); 10x His-tag with TEV site (N); made in house; host or cells: Sf21 insect cells (baculovirus, MultiBac)
# T4 sequence (P12956 whole entry): as the sequence (P12956 whole entry H359E/H360E) above, with E359H, E360H counted along it
# T4 sequence (P13010 whole entry): as the sequence (P13010 whole entry K413E/H414E) above, with E413K, E414H counted along it
# Method: Purification of Ku full-length (KuFL) for cryo-EM experiments was carried out as described previously ([5]). Expression and purification of KuFL for biophysical experiments was carried out as described previously ([20]). The full-length human Ku heterodimer subunits (Ku70 1–609, Ku80 1–732) were cloned into a Multibac vector ([21]). The construct has a 10× His-tag and a TEV site on the N-terminus of Ku80 and no-tag on Ku70. Protein production was initiated in Sf21 cells by infection with the baculovirus stock at MOI of 5 × 10^−3 and cells were collected 5–6 days after the infection (3–4 days after the proliferation arrest). Cells were sonicated and the supernatant was incubated with Benzonase (300 units for 30 min at 4°C). The Ku heterodimer was purified on a NiNTA-Agarose affinity column (Protino, Macherey Nagel) with a 1 M NaCl wash step to remove DNA excess. The eluted Ku was then bound onto an anion exchange column (Resource Q, Cytiva) equilibrated in 20 mM Tris pH 8.0, 50 mM NaCl, 50 mM KCl, 10 mM β-mercaptoethanol and eluted with a salt gradient. The final yield was about 20 mg of purified heterodimer per litre of culture. KuΔC constructs, heterodimer deleted of its C-terminal region (Ku70 1–544, Ku80 1–551) for X-ray crystallography, Ku mutants, Ku-2E (Ku with mutation in K357E on Ku70 and K481E on Ku80) and Ku-4E (Ku with mutations in H359E and H360E on Ku70 and K413E and H414E on Ku80) were cloned in the same vector and produced following the same protocol as KuFL expressed in Sf21 insect cells.
# Calorimetry. Interactions between KuFL and inositol phosphates (IPs) (IP6 and IP6 analogues) were determined by Isothermal Titration Calorimetry (ITC) using a VP-ITC calorimeter (Malvern). Prior to measurements, all solutions were degassed under vacuum. The reaction cell of the ITC (volume 1.8 mL) was loaded with Ku heterodimers at 4 µM concentration. […] The free energy of binding (ΔG) and the entropy (ΔS) were determined using the classical thermodynamic formula, ΔG = - RT ln(Ka) and ΔG = ΔH - TΔS. […]
# Ku = target: Ku; parameters: method as in PMID 18776215; details: competition assays with 3H-IP6; cited from earlier work
# [4] = target: T3, Ku-2E (Ku70-K357E, Ku80-K481E); experiment: ITC, Ku-2E mutant with IP6; type: binding
# Method: as §1, §2
# [5] = target: T1, Ku-4E (Ku70 H359E-H360E/Ku80 K413E H414E); experiment: nanoDSF thermal stability of Ku-4E; details: Ku-4E with DNA
# S. cerevisae Ku = tested on: S. cerevisae Ku; parameters: method as in PMID 11953323; details: cited from earlier work
smiles,measurement,setting,value
"O=P(O)(O)O[C@H]1[C@H](OP(=O)(O)O)[C@@H](OP(=O)(O)O)[C@H](OP(=O)(O)O)[C@@H](OP(=O)(O)O)[C@H]1OP(=O)(O)O [IP6, inositol hexaphosphate]",interaction with IP6 as measured by ITC,[1],no interaction
same,KD1 stronger with IP6 than in absence of IP6,Ku-XLF interaction,3 fold
same,KD2 stronger with IP6 than in absence of IP6,Ku-XLF interaction,14 fold
same,Kd,"Ku-XLF interaction; without IP6 1.9 ± 0.8, read-out: KD2, apparent affinity between Ku and XLF",130 ± 9 nM
same,Kd,"Ku-XLF interaction; without IP6 3.6 ± 0.6, read-out: KD1, apparent affinity between Ku and XLF",1200 ± 150 nM
same,extra thermal stabilization by IP6,[2],no extra stabilization
same,Kd,[3],3.5 ± 2.9 nM
same,Kd,Ku,46 nM
same,interaction with IP6 as measured by ITC,[4],no interaction
same,further thermal stabilization by IP6,[5],not further stabilized
same,interaction between S. cerevisae Ku and IP6,S. cerevisae Ku,absence of interactions
